Results reported in PubChem BioAssay (NCI).
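Where inhibition never reached the appropriate level, the endpoint shown equals the highest concentration tested. Otherwise, values were interpolated linearly from a five-concentration, 48-hour dose response in 96-well plates. At the TGI there is no net growth.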

How the values were obtained:
Experiment in all cases: NCI-60 cell line screen, 48 h
[1] = system: HCT-116 colon
[2] = system: TK-10 renal
[3] = system: UO-31 renal
[4] = system: K-562 leukemia
[5] = system: HT29 colon
[6] = system: HL-60(TB) leukemia
[7] = system: SW-620 colon
[8] = system: T-47D breast
[9] = system: SR leukemia
[10] = system: MDA-N
[11] = system: COLO 205 colon
[12] = system: PC-3 prostate
[13] = system: NCI-H522 lung
[14] = system: MOLT-4 leukemia
[15] = system: SK-MEL-5 melanoma
[16] = system: A549 NSCLC
[17] = system: SNB-19 CNS
[18] = system: UACC-257 melanoma
[19] = system: RPMI-8226 leukemia
[20] = system: KM12 colon
[21] = system: HS 578T breast
[22] = system: SF-539 CNS
[23] = system: EKVX NSCLC
[24] = system: SN12C renal
[25] = system: HCT-15 colon
[26] = system: MDA-MB-231 breast
[27] = system: LOX IMVI melanoma
[28] = system: OVCAR-5 ovarian
[29] = system: MALME-3M melanoma
[30] = system: IGROV1 ovarian
[31] = system: NCI/ADR-RES ovarian
[32] = system: MCF7 breast
[33] = system: NCI-H460 lung
[34] = system: NCI-H23 lung
[35] = system: HCC-2998 colon
[36] = system: SF-295 CNS
[37] = system: A498 renal
[38] = system: MDA-MB-435
[39] = system: M14 melanoma
[40] = system: SK-MEL-28 melanoma
[41] = system: HOP-62 NSCLC
[42] = system: OVCAR-3 ovarian
[43] = system: UACC-62 melanoma
[44] = system: U251 CNS
[45] = system: ACHN renal
[46] = system: BT-549 breast
[47] = system: OVCAR-8 ovarian
[48] = system: 786-0 renal
[49] = system: SK-MEL-2 melanoma
[50] = system: HOP-92 NSCLC
[51] = system: SK-OV-3 ovarian
[52] = system: OVCAR-4 ovarian
[53] = system: SF-268 CNS
[54] = system: RXF 393 renal
[55] = system: SNB-75 CNS
[56] = system: NCI-H226 lung
[57] = system: CAKI-1 renal
[58] = system: DU-145 prostate
[59] = system: CCRF-CEM leukemia

SMILES: COc1cc2c3c(c1O)N=NC=3CCN=2
- TGI [1]: 28.1 µM
- TGI [2]: 52.3 µM
- TGI [3]: 62.5 µM
- TGI [4]: 18.3 µM
- TGI [5]: 28.8 µM
- TGI [6]: 14.8 µM
- TGI [7]: 31.7 µM
- TGI [8]: 23.3 µM
- TGI [9]: 42.3 µM
- TGI [10]: 25.1 µM
- TGI [11]: 35.2 µM
- TGI [12]: 84.8 µM
- TGI [13]: 19.4 µM
- TGI [14]: 50.4 µM
- TGI [15]: 32.5 µM
- TGI [16]: 66.4 µM
- TGI [17]: > 100 µM
- TGI [18]: 29.1 µM
- TGI [19]: 31.1 µM
- TGI [20]: 88.4 µM
- TGI [21]: > 100 µM
- TGI [22]: 35.5 µM
- TGI [23]: 30.7 µM
- TGI [24]: 29.3 µM
- TGI [25]: > 100 µM
- TGI [26]: 29.8 µM
- TGI [27]: 18 µM
- TGI [28]: 34.4 µM
- TGI [29]: 30.2 µM
- TGI [30]: 34 µM
- TGI [31]: > 100 µM
- TGI [32]: 20.2 µM
- TGI [33]: 80.1 µM
- TGI [34]: 38.2 µM
- TGI [35]: > 100 µM
- TGI [36]: 50.9 µM
- TGI [37]: 75.4 µM
- TGI [38]: 24.5 µM
- TGI [39]: 28.8 µM
- TGI [40]: 32.1 µM
- TGI [41]: 97.3 µM
- TGI [42]: 31 µM
- TGI [43]: 30.7 µM
- TGI [44]: 30.6 µM
- TGI [45]: 33.8 µM
- TGI [46]: 31.7 µM
- TGI [47]: 30.9 µM
- TGI [48]: 32.7 µM
- TGI [49]: 30.9 µM

SMILES: CC(=O)c1ccc(NC(=O)/C(CC(=O)/C=C/c2ccccc2)=N/NC(N)=S)cc1
- TGI [1]: > 100 µM
- TGI [2]: > 100 µM
- TGI [3]: > 100 µM
- TGI [4]: > 100 µM
- TGI [5]: > 100 µM
- TGI [6]: > 100 µM
- TGI [50]: > 100 µM
- TGI [7]: > 100 µM
- TGI [51]: > 100 µM
- TGI [8]: > 100 µM
- TGI [9]: > 100 µM
- TGI [10]: > 100 µM
- TGI [12]: > 100 µM
- TGI [13]: > 100 µM
- TGI [14]: > 100 µM
- TGI [15]: > 100 µM
- TGI [16]: > 100 µM
- TGI [18]: > 100 µM
- TGI [19]: > 100 µM
- TGI [52]: > 100 µM
- TGI [20]: > 100 µM
- TGI [21]: > 100 µM
- TGI [22]: > 100 µM
- TGI [23]: > 100 µM
- TGI [24]: > 100 µM
- TGI [25]: > 100 µM
- TGI [53]: > 100 µM
- TGI [26]: > 100 µM
- TGI [54]: > 100 µM
- TGI [27]: > 100 µM
- TGI [28]: > 100 µM
- TGI [29]: > 100 µM
- TGI [30]: > 100 µM
- TGI [55]: > 100 µM
- TGI [31]: > 100 µM
- TGI [32]: > 100 µM
- TGI [33]: > 100 µM
- TGI [34]: > 100 µM
- TGI [56]: > 100 µM
- TGI [35]: > 100 µM
- TGI [36]: > 100 µM
- TGI [37]: > 100 µM
- TGI [38]: > 100 µM
- TGI [39]: > 100 µM
- TGI [40]: > 100 µM
- TGI [41]: > 100 µM
- TGI [42]: > 100 µM
- TGI [43]: > 100 µM
- TGI [44]: > 100 µM
- TGI [45]: > 100 µM
- TGI [46]: > 100 µM
- TGI [47]: > 100 µM
- TGI [48]: > 100 µM
- TGI [49]: > 100 µM
- TGI [57]: > 100 µM

SMILES: CCCCC1C=Cn2c(=O)oc3c(OC(C)C)c(OC(C)C)c(O)c1c32 (stereo not given)
- TGI [1]: 34.9 µM
- TGI [2]: 31.4 µM
- TGI [3]: 27.8 µM
- TGI [5]: 29.2 µM
- TGI [6]: 22.8 µM
- TGI [50]: 47.2 µM
- TGI [7]: 27.2 µM
- TGI [51]: 84.3 µM
- TGI [8]: 27 µM
- TGI [10]: 55.5 µM
- TGI [11]: 30.3 µM
- TGI [12]: > 100 µM
- TGI [13]: 24.7 µM
- TGI [14]: 27.8 µM
- TGI [15]: 27.8 µM
- TGI [16]: 46.6 µM
- TGI [17]: 68.2 µM
- TGI [18]: 41.7 µM
- TGI [52]: 42.8 µM
- TGI [20]: 27.4 µM
- TGI [58]: 34.2 µM
- TGI [21]: 67 µM
- TGI [22]: 38.7 µM
- TGI [23]: 83.1 µM
- TGI [24]: 49.1 µM
- TGI [25]: 31.4 µM
- TGI [53]: 44.9 µM
- TGI [26]: 33.1 µM
- TGI [27]: 27.4 µM
- TGI [28]: 34.2 µM
- TGI [59]: 25.6 µM
- TGI [55]: 47.5 µM
- TGI [32]: 29.2 µM
- TGI [33]: 29.6 µM
- TGI [34]: 32.6 µM
- TGI [56]: 27.5 µM
- TGI [36]: 40 µM
- TGI [37]: 32.3 µM
- TGI [38]: 26.8 µM
- TGI [39]: 46.3 µM
- TGI [40]: 39.3 µM
- TGI [41]: 38 µM
- TGI [42]: 30.6 µM
- TGI [43]: 28.8 µM
- TGI [44]: 29.4 µM
- TGI [45]: > 100 µM
- TGI [46]: 34.7 µM
- TGI [47]: 29.5 µM
- TGI [48]: 48.6 µM
- TGI [49]: 37.7 µM
- TGI [57]: 37.5 µM
